Reference: patent US10781224B2, “Bis(oxymethyl)phosphinic acid and biogenic metal salts thereof as regulators of plant growth and development” (priority 2016, dated 2020)

Experiments:
Format in all cases: in vivo
[1] = system: spring wheat (Ekada-66 variety); assay: Spring wheat seed treatment: germination rate and plant height (laboratory, Petri dishes); conditions: for Germination rate % 4th day / Germination rate % 8th day / Plant height: spring wheat
Method: (§1) Control—Soaking Seeds in Water;
(§2) Experimental versions—soaking seeds in BHMPA solutions and solutions of BHMPA Ca, Mg, Na, Co, Mn, Cu, and Zn salts at 1·10^−6-1·10^−12% concentrations (doses). The studies were conducted in laboratory in Petri dishes; seed bed—two layers of filter paper. 50 seeds soaked in water (control) and in the solutions of the tested compounds (experimental) were placed into each dish. Wheat, corn, and rice seeds were exposed for one hour.
(§3) Analysis was conducted according to the government standards GOST 12038-84 “Crop seeds. Technical conditions for determining the germination energy and germination rate”, GOST 12044-93 “Crop seeds. Methods for determining disease contamination.”
(§4) Seed germination energy and rate were calculated in percent as an arithmetic mean of the four experimental results (germination energy on the 4th day, wheat germination on the 8th day, rice and corn germination—on the 7th day). Germination was determined based on the germinating power indicators (length of the roots and sprouts and their wet and dry mass per 100 shoots).
(§5) The study of the effect of pre-sowing seed treatment with BHMPA was conducted on winter wheat (Kazan-500 variety) and spring wheat (Ekada-66 variety).

[2] = system: spring wheat seeds: contamination by mold, alternaria, bacteriosis; assay: Phytopathological properties (seed contamination) of treated spring wheat seeds
Method: as §2, §3, §5
The effect of the treatment with BHMPA on phytopathological properties of spring wheat seeds was examined and the results are presented in Table II. […] The biological activity in this case was 64.4%. In other samples, contamination of the seeds also remained lower than that of the control. Treatment of seeds with BHMPA solutions reduced their overall contamination.

[3] = system: winter wheat (Kazan-500 variety); assay: Winter wheat seed treatment with BHMPA: germination energy, germination rate, plant height, roots
Method: as §1, §2, §3, §4, §5

Compound: O=P(O)(CO)CO [BHMPA, bis-(hydroxymethyl)-phosphinic acid]
- Germination rate % 4th day ([1]; 1·10^−7% solution): 28.0%
- Germination rate % 8th day ([1]; 1·10^−7% solution): 70.0%
- Plant height ([1]; 1·10^−7% solution): 14.1 cm
- Germination rate % 4th day ([1]; 1·10^−9% solution): 33.0%
- Germination rate % 8th day ([1]; 1·10^−9% solution): 81.5%
- Plant height ([1]; 1·10^−9% solution): 14.3 cm
- Germination rate % 4th day ([1]; 1·10^−12% solution): 32.5%
- Germination rate % 8th day ([1]; 1·10^−12% solution): 81.3%
- Plant height ([1]; 1·10^−12% solution): 14.4 cm
- growth-regulating ability compared with Melaphen ([1]; wheat, Tables I-III, 1·10^−9%, 1·10^−11% and 1·10^−12%): lesser impact than that of the prototype Melaphen
- Biological efficacy ([2]; 1·10^−7% solution): 44.1%
- Contamination by type: alternaria ([2]; 1·10^−7% solution): 24%
- Contamination by type: bacteriosis ([2]; 1·10^−7% solution): 6%
- Contamination by type: mold ([2]; 1·10^−7% solution): 3%
- Overall contamination ([2]; 1·10^−7% solution): 33.0%
- Biological efficacy ([2]; 1·10^−8% solution): 42.4%
- Contamination by type: alternaria ([2]; 1·10^−8% solution): 26%
- Contamination by type: bacteriosis ([2]; 1·10^−8% solution): 6%
- Contamination by type: mold ([2]; 1·10^−8% solution): 2%
- Overall contamination ([2]; 1·10^−8% solution): 34.0%
- Biological efficacy ([2]; 1·10^−9% solution): 64.4%
- Contamination by type: alternaria ([2]; 1·10^−9% solution): 14%
- Contamination by type: bacteriosis ([2]; 1·10^−9% solution): 4%
- Contamination by type: mold ([2]; 1·10^−9% solution): 3%
- Overall contamination ([2]; 1·10^−9% solution): 21.5%
- overall seed contamination lower than that of the control by ([2]; 1·10^−9% solution, control 59%): 38%
- Overall contamination ([2]; 1·10^−9% solution, listed as bis-(hydroxymethyl)-phosphinic acid): 21.0%
- Biological efficacy ([2]; 1·10^−10% solution): 61.0%
- Contamination by type: alternaria ([2]; 1·10^−10% solution): 16%
- Contamination by type: bacteriosis ([2]; 1·10^−10% solution): 4%
- Contamination by type: mold ([2]; 1·10^−10% solution): 3%
- Overall contamination ([2]; 1·10^−10% solution): 23.0%
- Biological efficacy ([2]; 1·10^−11% solution): 22.0%
- Contamination by type: alternaria ([2]; 1·10^−11% solution): 42%
- Contamination by type: bacteriosis ([2]; 1·10^−11% solution): 2%
- Contamination by type: mold ([2]; 1·10^−11% solution): 2%
- Overall contamination ([2]; 1·10^−11% solution): 46.0%
- Biological efficacy ([2]; 1·10^−12% solution): 44.1%
- Contamination by type: alternaria ([2]; 1·10^−12% solution): 28%
- Contamination by type: bacteriosis ([2]; 1·10^−12% solution): 3%
- Contamination by type: mold ([2]; 1·10^−12% solution): 2%
- Overall contamination ([2]; 1·10^−12% solution): 33.0%
- Germination energy ([3]; 1·10^−7% solution): 82.5%
- Germination rate ([3]; 1·10^−7% solution): 84.0%
- Number of roots ([3]; 1·10^−7% solution): 3.3
- Plant height ([3]; 1·10^−7% solution): 11.3 cm
- Root length ([3]; 1·10^−7% solution): 11.7 cm
- Germination energy ([3]; 1·10^−8% solution): 86.0%
- Germination rate ([3]; 1·10^−8% solution): 86.0%
- Number of roots ([3]; 1·10^−8% solution): 3.1
- Plant height ([3]; 1·10^−8% solution): 12.5 cm
- Root length ([3]; 1·10^−8% solution): 12.1 cm
- Germination energy ([3]; 1·10^−9% solution): 87.4%
- Germination rate ([3]; 1·10^−9% solution): 96.0%
- Number of roots ([3]; 1·10^−9% solution): 3.4
- Plant height ([3]; 1·10^−9% solution): 13.6 cm
- Root length ([3]; 1·10^−9% solution): 12.3 cm
- Germination energy ([3]; 1·10^−10% solution): 85.7%
- Germination rate ([3]; 1·10^−10% solution): 90.0%
- Number of roots ([3]; 1·10^−10% solution): 3.2
- Plant height ([3]; 1·10^−10% solution): 11.2 cm
- Root length ([3]; 1·10^−10% solution): 11.5 cm
- Germination energy ([3]; 1·10^−11% solution): 83.9%
- Germination rate ([3]; 1·10^−11% solution): 92.0%
- Number of roots ([3]; 1·10^−11% solution): 3.3
- Plant height ([3]; 1·10^−11% solution): 12.4 cm
- Root length ([3]; 1·10^−11% solution): 11.3 cm
- Germination energy ([3]; 1·10^−12% solution): 90.0%
- Germination rate ([3]; 1·10^−12% solution): 95.0%
- Number of roots ([3]; 1·10^−12% solution): 3.3
- Plant height ([3]; 1·10^−12% solution): 14.1 cm
- Root length ([3]; 1·10^−12% solution): 11.9 cm
